Results published in the supplement of paper PMC11208160.

Test: recombinant UMI read abundance after kanamycin selection (control-corrected) (log10(CPM+1)); higher = more efficient recombination; extreme values may be limits of the assay; sequences stand for … in AGTGCAGAGAAAATCGGCCAGTTTTCTCTGCCTGCAGTCCGCATGCCGTGGGACCCCTTGGGTTCTAACCTGTTGCCTAGATTTATGCAGCGGACTGCCTTTCTCCCAAAGTGATAAACCGG…AGGTTGGTTTCACT; site = the 11-nt donor
Summary of the method: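 After plating on IPTG (0.07 mM) plus kanamycin, or unselected, in two replicates, recombinant UMIs were PCR-amplified across the donor–target junction and sequenced. The cells were Escherichia coli co-electroporated with a UMI-tagged donor and donor-binding-loop pair library and a target plasmid with a fixed target and T7-inducible IS621 bridge recombinase. Values are log10(CPM+1), with CPM averaged over replicates and scaled by control-derived factors.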
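Also: IS621 bridge recombinase in Escherichia coli cells against a fixed T5 target plasmid.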

Which “recombinant UMI read abundance (log10)” value does the source give for “TGATGAGCATGGACCGGTTTTCCCGGTAATCCGTATTTGGG (site TGATGAGCTCC)” here?
The value was 0.403.

Which “recombinant UMI read abundance (log10)” value does the source give for “TGATGAGCATGGACCGGTTTTCCCGGTAATCCGTATTTGGG (site TTATGAGCTCC)” here?
The value was 0.0217.

With “TGATTAGCATGGACCGGTTTTCCCGGTAATCCGTATTTGGG (site TGATTAGCTCC)” as the sequence, how does the “recombinant UMI read abundance (log10)” value read?
The value was 0.

For “TGCACCACATGGACCGGTTTTCCCGGTAATCCGTATTTGCT (site TGCACCACTAG)”, which “recombinant UMI read abundance (log10)” value is on record?
The value was 1.3.

For “TGCACGGCATGGACCGGTTTTCCCGGTAATCCGTATTTGTT (site TGCACGGCTAA)”, which “recombinant UMI read abundance (log10)” value is on record?
The value was 0.724.

For “TGCCACCCATGGACCGGTTTTCCCGGTAATCCGTATTTGTT (site AGCCACCCTAA)”, which “recombinant UMI read abundance (log10)” value is on record?
The value was 0.00473.

For “TGCCACCCATGGACCGGTTTTCCCGGTAATCCGTATTTGTT (site CGCCACCCTAA)”, which “recombinant UMI read abundance (log10)” value is on record?
The value was 0.0165.

Which “recombinant UMI read abundance (log10)” value does the source give for “TGCCACCCATGGACCGGTTTTCCCGGTAATCCGTATTTGTT (site GGCCACCCTAA)” here?
The value was 0.00763.

Which “recombinant UMI read abundance (log10)” value does the source give for “TGCCACCCATGGACCGGTTTTCCCGGTAATCCGTATTTGTT (site TGCCACCCTAA)” here?
Its value is 0.0117.

With “TGCCATGCATGGACCGGTTTTCCCGGTAATCCGTATTTGCC (site TGCCATGCTGG)” as the sequence, how does the “recombinant UMI read abundance (log10)” value read?
Its value is 0.0153.

For “TGCCCAACATGGACCGGTTTTCCCGGTAATCCGTATTTGGT (site TGCCCAACTAC)”, which “recombinant UMI read abundance (log10)” value is on record?
Its value is 0.06.

Which “recombinant UMI read abundance (log10)” value does the source give for “TGCCCTGCATGGACCGGTTTTCCCGGTAATCCGTATTTGTT (site TGCCCTGCTAA)” here?
Its value is 0.0362.

Which “recombinant UMI read abundance (log10)” value does the source give for “TGCCTATCATGGACCGGTTTTCCCGGTAATCCGTATTTGTT (site TGCCTATCTAA)” here?
The value was 0.0105.

With “TGCCTCGCATGGACCGGTTTTCCCGGTAATCCGTATTTGGG (site TGCCTCGCTCC)” as the sequence, how does the “recombinant UMI read abundance (log10)” value read?
Its value is 0.0166.

For “TGCGAGCCATGGACCGGTTTTCCCGGTAATCCGTATTTGAA (site TGCGAGCCTTT)”, which “recombinant UMI read abundance (log10)” value is on record?
Its value is 0.00414.

For “TGCGAGGCATGGACCGGTTTTCCCGGTAATCCGTATTTGTA (site TGCGAGGCTTA)”, which “recombinant UMI read abundance (log10)” value is on record?
The value was 1.41.

For “TGCGCTTCATGGACCGGTTTTCCCGGTAATCCGTATTTGGG (site TGCGCTTCTCC)”, which “recombinant UMI read abundance (log10)” value is on record?
Its value is 0.0195.

For “TGCGGACCATGGACCGGTTTTCCCGGTAATCCGTATTTGCA (site TGCGGACCTTG)”, which “recombinant UMI read abundance (log10)” value is on record?
The value was 0.

For “TGCGGACCATGGACCGGTTTTCCCGGTAATCCGTATTTGCT (site TGCGGACCTAG)”, which “recombinant UMI read abundance (log10)” value is on record?
Its value is 0.00621.

Which “recombinant UMI read abundance (log10)” value does the source give for “TGCGTGACATGGACCGGTTTTCCCGGTAATCCGTATTTGAT (site TGCGTGACTAT)” here?
The value was 1.94.

Which “recombinant UMI read abundance (log10)” value does the source give for “TGCGTGTCATGGACCGGTTTTCCCGGTAATCCGTATTTGCC (site TGCGTGTCTGG)” here?
The value was 2.33.

Which “recombinant UMI read abundance (log10)” value does the source give for “TGCTATACATGGACCGGTTTTCCCGGTAATCCGTATTTGAT (site TGCTATACTAT)” here?
Its value is 0.285.

Which “recombinant UMI read abundance (log10)” value does the source give for “TGCTCAGCATGGACCGGTTTTCCCGGTAATCCGTATTTGTT (site TGCTCAGCTAA)” here?
The value was 0.

With “TGCTCCCCATGGACCGGTTTTCCCGGTAATCCGTATTTGTA (site TGATCCCCTTA)” as the sequence, how does the “recombinant UMI read abundance (log10)” value read?
Its value is 0.0151.

For “TGCTCCCCATGGACCGGTTTTCCCGGTAATCCGTATTTGTA (site TGCTCCCCTTA)”, which “recombinant UMI read abundance (log10)” value is on record?
Its value is 0.00702.

Which “recombinant UMI read abundance (log10)” value does the source give for “TGCTCCCCATGGACCGGTTTTCCCGGTAATCCGTATTTGTA (site TGGTCCCCTTA)” here?
Its value is 0.00608.

For “TGCTCCCCATGGACCGGTTTTCCCGGTAATCCGTATTTGTA (site TGTTCCCCTTA)”, which “recombinant UMI read abundance (log10)” value is on record?
The value was 0.00224.

With “TGCTCCGCATGGACCGGTTTTCCCGGTAATCCGTATTTGTG (site TGCTCCGCTCA)” as the sequence, how does the “recombinant UMI read abundance (log10)” value read?
Its value is 0.265.

Which “recombinant UMI read abundance (log10)” value does the source give for “TGCTGCACATGGACCGGTTTTCCCGGTAATCCGTATTTGAA (site TGCTGCACTTT)” here?
The value was 0.0328.

Which “recombinant UMI read abundance (log10)” value does the source give for “TGCTGCTCATGGACCGGTTTTCCCGGTAATCCGTATTTGGT (site TGCTGCTCTAC)” here?
Its value is 0.182.

Which “recombinant UMI read abundance (log10)” value does the source give for “TGCTTAGCATGGACCGGTTTTCCCGGTAATCCGTATTTGTC (site TGCTTAGCTGA)” here?
The value was 0.

For “TGCTTGACATGGACCGGTTTTCCCGGTAATCCGTATTTGCT (site TACTTGACTAG)”, which “recombinant UMI read abundance (log10)” value is on record?
Its value is 1.51.

For “TGCTTGACATGGACCGGTTTTCCCGGTAATCCGTATTTGCT (site TCCTTGACTAG)”, which “recombinant UMI read abundance (log10)” value is on record?
The value was 0.0059.

Which “recombinant UMI read abundance (log10)” value does the source give for “TGCTTGACATGGACCGGTTTTCCCGGTAATCCGTATTTGCT (site TGCTTGACTAG)” here?
Its value is 0.922.

For “TGCTTGACATGGACCGGTTTTCCCGGTAATCCGTATTTGCT (site TTCTTGACTAG)”, which “recombinant UMI read abundance (log10)” value is on record?
Its value is 0.00367.

With “TGCTTGACATGGACCGGTTTTCCCGGTAATCCGTATTTGGA (site TGCTTGACTTC)” as the sequence, how does the “recombinant UMI read abundance (log10)” value read?
Its value is 0.355.

With “TGCTTGGCATGGACCGGTTTTCCCGGTAATCCGTATTTGAA (site TGCTTGGCTTT)” as the sequence, how does the “recombinant UMI read abundance (log10)” value read?
Its value is 0.485.

With “TGCTTGGCATGGACCGGTTTTCCCGGTAATCCGTATTTGGT (site TGCTAGGCTAC)” as the sequence, how does the “recombinant UMI read abundance (log10)” value read?
The value was 0.011.

For “TGCTTGGCATGGACCGGTTTTCCCGGTAATCCGTATTTGGT (site TGCTCGGCTAC)”, which “recombinant UMI read abundance (log10)” value is on record?
Its value is 0.

For “TGCTTGGCATGGACCGGTTTTCCCGGTAATCCGTATTTGGT (site TGCTGGGCTAC)”, which “recombinant UMI read abundance (log10)” value is on record?
The value was 0.155.

With “TGCTTGGCATGGACCGGTTTTCCCGGTAATCCGTATTTGGT (site TGCTTGGCTAC)” as the sequence, how does the “recombinant UMI read abundance (log10)” value read?
The value was 0.0115.

For “TGGAAAACATGGACCGGTTTTCCCGGTAATCCGTATTTGCA (site AGGAAGACTTG)”, which “recombinant UMI read abundance (log10)” value is on record?
Its value is 0.218.

With “TGGAAAACATGGACCGGTTTTCCCGGTAATCCGTATTTGCA (site TGGAAAACTTG)” as the sequence, how does the “recombinant UMI read abundance (log10)” value read?
The value was 2.24.

With “TGGACAGCATGGACCGGTTTTCCCGGTAATCCGTATTTGCT (site TGGACAGCTAG)” as the sequence, how does the “recombinant UMI read abundance (log10)” value read?
Its value is 2.26.

With “TGGACATCATGGACCGGTTTTCCCGGTAATCCGTATTTGCT (site AGGACATCTAG)” as the sequence, how does the “recombinant UMI read abundance (log10)” value read?
Its value is 1.44.

With “TGGACATCATGGACCGGTTTTCCCGGTAATCCGTATTTGCT (site CGGACATCTAG)” as the sequence, how does the “recombinant UMI read abundance (log10)” value read?
Its value is 2.04.

Which “recombinant UMI read abundance (log10)” value does the source give for “TGGACATCATGGACCGGTTTTCCCGGTAATCCGTATTTGCT (site GGGACATCTAG)” here?
The value was 0.348.

Which “recombinant UMI read abundance (log10)” value does the source give for “TGGACATCATGGACCGGTTTTCCCGGTAATCCGTATTTGCT (site TGGACATCTAG)” here?
Its value is 1.69.

For “TGGACCACATGGACCGGTTTTCCCGGTAATCCGTATTTGAT (site TGGACCACTAT)”, which “recombinant UMI read abundance (log10)” value is on record?
The value was 0.721.

For “TGGAGCGCATGGACCGGTTTTCCCGGTAATCCGTATTTGGG (site TGGAGCGCTCC)”, which “recombinant UMI read abundance (log10)” value is on record?
The value was 0.0132.

With “TGGAGTTCATGGACCGGTTTTCCCGGTAATCCGTATTTGTA (site TGGAGTTCTTA)” as the sequence, how does the “recombinant UMI read abundance (log10)” value read?
The value was 1.31.

Which “recombinant UMI read abundance (log10)” value does the source give for “TGGATTTCATGGACCGGTTTTCCCGGTAATCCGTATTTGCA (site TGGATTTCTTG)” here?
Its value is 0.673.

For “TGGCATCCATGGACCGGTTTTCCCGGTAATCCGTATTTGTT (site CGGAATCCTAA)”, which “recombinant UMI read abundance (log10)” value is on record?
Its value is 0.

With “TGGCATCCATGGACCGGTTTTCCCGGTAATCCGTATTTGTT (site TGGCATCCTAA)” as the sequence, how does the “recombinant UMI read abundance (log10)” value read?
Its value is 0.165.

With “TGGCCACCATGGACCGGTTTTCCCGGTAATCCGTATTTGTT (site TGGCCACCTAA)” as the sequence, how does the “recombinant UMI read abundance (log10)” value read?
The value was 0.0258.

Which “recombinant UMI read abundance (log10)” value does the source give for “TGGCCAGCATGGACCGGTTTTCCCGGTAATCCGTATTTGGC (site TGGCCAGCTGC)” here?
The value was 0.

For “TGGCCAGCATGGACCGGTTTTCCCGGTAATCCGTATTTGGC (site TGGCCCGCTGC)”, which “recombinant UMI read abundance (log10)” value is on record?
The value was 0.
